According to US20040092571A1, “Pharmaceutical composition” (SANKYO COMPANY, LIMITED, priority 2000, published 2004):
Counter-ions that a name gives are not always drawn.

Tests used:
F1b hamsters = assay: Lipid lowering action in cholesterol/coconut oil-fed F1b hamsters (serum lipids by an enzyme method); format: in vivo, hamster; conditions: for Cholesterol concentration TC (total cholesterol) / Atherogenic index (VLDL+LDL cholesterol/HDL cholesterol) / Cholesterol concentration HDL / Cholesterol concentration VLDL + LDL: serum, oral once a day for 7 days, Pravastatin 3 mg/kg, Compound A 30 mg/kg; for Cholesterol concentration TC (total cholesterol): 17 h fast after final dose, control 253.0; for Atherogenic index (VLDL+LDL cholesterol/HDL cholesterol): control 3.0; for Cholesterol concentration HDL: control 63.6; for Cholesterol concentration VLDL + LDL: control 189.4
Method: Eleven-week-old male F1b hamsters were used in the experiment. The animals were fed in metal cages and allowed free access to food, which contained 0.05% cholesterol and 10% coconut oil, and water. The active agents were administered orally in the form of a suspension in 5% gum arabic solution once a day for 7 days. The animals were fasted for 17 hours after the final administration of active agents at which time blood samples were collected under anesthesia. Serum lipids were measured by an enzyme method. In the table, TC indicates total cholesterol, VLDL indicates very low density lipoprotein, LDL indicates low density lipoprotein, HDL indicates high density lipoprotein and compound A indicates N-(1-octyl-5-carboxymethyl-4,6-dimethylindolin-7-yl)-2,2-dimethylpropanamide sulfate.

cholesterol-fed rabbits = assay: Effect on the development of atherosclerotic lesion in cholesterol-fed rabbits with chronic endothelial injury; format: in vivo, New Zealand White rabbits; conditions: for Effect on ECD (in words) / Effect on atheroclerotic area of the femoral lesion (in words): Table 2; for The ratio of Atheroclerotic area: femoral artery, oral for 8 weeks after surgery, control 57.4; for The ratio of Atheroclerotic area / ECD (extracellular lipid deposits): Pravastatin 10 mg/kg, Compound A 5 mg/kg; for ECD (extracellular lipid deposits): right femoral artery sections, Elastica-Masson's stain, oral for 8 weeks, control 15.5
Excerpt: Male New Zealand White rabbits (Kitayama Labes, Japan) weighing 1.0-1.5 kg were meal-fed a chow diet (RC-4, Oriental Bioservice, Japan) supplemented with 0.5% cholesterol, 3% peanut oil, and 3% coconut oil diet for a total of 10 weeks.
The dietary regimen consisted of feeding the cholesterol/fat diet at 40 g for the first 2 weeks, 50 g for 4 weeks, 60 g for final 4 weeks. After 2 week of diet initiation, a chronic endothelial injury was induced in the abdominal aorta and right femoral artery by surgically inserting a sterile, nylon monofilament through the medical saphenous artery of the right leg to the level of the diaphragm. The monofilament was secured and maintained in place for remaining 8 weeks of the study. Animals were randomized on the basis of their total cholesterol levels after 2 week of cholesterol/fat diet. The HMG-CoA reductase inhibitor and the ACAT inhibitor were orally administered both alone and in combination for 8 weeks after surgery.
Femoral artery was photographed for the morphometric analyses by digital camera (Coolpix 990, trade name: product of […].) connected with a computer. The severity of aortic atherosclerosis was estimated as a ratio of surface area of lesion to the intimal surface area of aorta by Photo-retouch software (“Adobe Photoshop 5.0” trade name: product of Adobe Systems Inc.) and the Scion image NIH Imaging Software (“Scion Image 1.61 c MacOs” product of Scion Corporation). (ii) Extracellular Lipid Deposits
Rabbits were anesthetized with intravenous injection of sodium pentobarbital (25 mg/kg) and perfused with saline by using a perfusion apparatus at a constant pressure of 100 mmHg. After perfusion, the aortas were excised, photographed. Analysis of lesional cross-sections on aortas was examined at the right femoral artery. Right femoral artery was fixed in Methanol Carnoy's fixative for at least 24 hours. The segments were embedded in paraffin, and sectioned at 5 μm. Five ribbons of four serilal sections from each segment were cut at 80 μm intervals. A section from each ribbon was treated with Elastica-Masson's stain.
Digital image of each section was collected using a digital camera (Fujix CCD camera system HC-2500: product of Fuji Photo Film Co., Ltd.) attached to Leica microscope at a magnification of 2.5×. The area of each lesional component was extracted using Adobe Photoshop 5.0 (Adobe) for estimation of the quality of the lesions. In sections treated with Elastica-Masson's stain, the region with light green were identified as extracellular matrix (ECM), and extracellular vacuoles and lacunae (white regions) were defined as extracellular lipid deposits (ECD). ECD was measured by average of value dividing area of lesional component by area of lesion using Adobe Photoshop 5.0 and Scion Image 1.61 MacOs.

Compound	Cholesterol concentration TC (total cholesterol) (F1b hamsters)	Atherogenic index (VLDL+LDL cholesterol/HDL cholesterol) (F1b hamsters)	Cholesterol concentration HDL (F1b hamsters)	Cholesterol concentration VLDL + LDL (F1b hamsters)	Effect on atherogenic index (in words) (F1b hamsters; summary of Table 1)	Effect on serum VLDL+LDL cholesterol level (in words) (F1b hamsters; summary of Table 1)	Effect on total serum cholesterol level (in words) (F1b hamsters; summary of Table 1)	Effect on ECD (in words) (cholesterol-fed rabbits)	Effect on atheroclerotic area of the femoral lesion (in words) (cholesterol-fed rabbits)	The ratio of Atheroclerotic area (cholesterol-fed rabbits)	ECD (extracellular lipid deposits) (cholesterol-fed rabbits)
CCCCCCCCN1CCc2c(C)c(CC(=O)O)c(C)c(NC(=O)C(C)(C)C)c21 [Compound A, N-(1-octyl-5-carboxymethyl-4,6-dimethylindolin-7-yl)-2,2-dimethylpropanamide sulfate]	170.9	1.8	62.0	109.0	lowered	decreased	decreased	reduced	reduced	45.8%	10.7 mm^2
CC[C@H](C)C(=O)O[C@H]1C[C@H](O)C=C2C=C[C@H](C)[C@H](CC[C@@H](O)C[C@@H](O)CC(=O)O)[C@H]21 [Pravastatin, (+)-(3R,5R)-3,5-dihydroxy-7-[(1S,2S,6S,8S,8aR)-6-hydroxy-2-methyl-8-[(S)-2-methylbutyryloxy]-1,2,6,7,8,8a-hexahydro-1-napthyl]heptanoic acid, reference compound]	244.0	2.3	73.3	170.6	–	–	–	no effect	no effect	58.3%	16.6 mm^2
